pEC50, pIC50: −log10 of the molar value. Read-outs that look alike come from different tables or passages of the source.
Tests used:
[1] = tested on: TNFα; assay: Cot Monocyte TNFα Cell Based Assay
[2] = biological target: Human Cot (Homo sapiens (Human), UniProt P41279); assay: High Throughput Cot Biochemical Assay
[3] = read-out: IC50 HTRF, Cot HTRF (TR-FRET) biochemical assay
[4] = read-out: EC50 TNF, LPS-stimulated human monocytes, TNFα TR-FRET
[5] = read-out: IC50 HTRF, Cot HTRF (TR-FRET KinEASE) biochemical assay, 400 μM ATP
[6] = Homo sapiens, Monocyte, read-out: EC50 TNF, LPS-stimulated human monocytes, TNFα
[7] = IC50 HTRF, Cot HTRF (TR-FRET) biochemical assay
[8] = Homo sapiens, Monocyte, read-out: EC50 TNF, LPS-stimulated human monocytes, TNFα TR-FRET
[9] = IC50 HTRF, Cot HTRF (TR-FRET KinEASE) biochemical assay, 400 μM ATP

Human Cot, sequence (P41279 30-397): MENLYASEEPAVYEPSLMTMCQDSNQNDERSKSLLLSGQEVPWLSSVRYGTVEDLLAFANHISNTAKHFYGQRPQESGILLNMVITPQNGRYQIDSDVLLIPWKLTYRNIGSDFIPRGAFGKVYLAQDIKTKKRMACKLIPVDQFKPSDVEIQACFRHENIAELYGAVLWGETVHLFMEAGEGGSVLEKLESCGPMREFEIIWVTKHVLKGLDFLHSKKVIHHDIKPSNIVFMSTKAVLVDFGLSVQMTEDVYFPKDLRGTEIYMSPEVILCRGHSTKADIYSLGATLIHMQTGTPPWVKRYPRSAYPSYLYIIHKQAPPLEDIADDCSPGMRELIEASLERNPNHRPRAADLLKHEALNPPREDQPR

| SMILES | pEC50 [1, 6] | pIC50 [2, 7] | also measured |
| --- | --- | --- | --- |
| CC(C)(C)CNc1c(C#N)cnc2c(Cl)cc(N[C@H](c3cn(C4(C(F)F)CC4)nn3)c3cccc4[nH]ncc34)cc12 [Example 500, (S)-8-chloro-6-(((1-(1-(difluoromethyl- )cyclopropyl)-1H-1,2,3-triazol-4-yl)(1H-indazol-4-yl)methyl)amino)-4-(neopentylamino)quinoline-3-carbonitrile] |  |  | pEC50 ([1]; read-out: EC50 TNF, LPS-stimulated human monocytes, TNFα): 6.49; pIC50 [2, 3]: 8.10 |
| COc1nccc2c([C@H](Nc3cc(C#N)c4ncc(C#N)c(NCC(C)(C)C)c4c3)c3cn(C4CC4)nn3)cccc12 [Example 808, (S)-6-(((1-cyclopropyl-1H-1,2,3-triazol-4-yl)(1-methoxylsoquinolin-5-yl)methyl)airiino)-4-(neopentylamino)quinoline-3,8-dicarbonitrile] |  |  | pEC50 [1, 4]: 7.54; pIC50 [2, 5]: 8.52 |
| Cc1ncccc1[C@H](Nc1cc(Cl)c2ncc(C#N)c(Nc3cccc(Cl)c3F)c2c1)c1cn(C2CCN(C(C)(C)C)CC2)nn1 [Example 247, (S)-6-(((1-(1-(tert-butyl)piperidin-4-yl)-1H-1,2,3-triazol-4-yl)(2-methylpyridin-3-yl)methyl)amino)-8-chloro-4-((3-chloro-2-fluorophenyl)amino)quinoline-3-carbonitrile] | 6.99 |  | pIC50 [2, 3]: 8.70 |
| CC(C)(C)CNc1c(C#N)cnc2c(C#N)cc(N[C@H](c3cn(C4CCN(C(C)(C)C)CC4)nn3)c3cccc4ncsc34)cc12 [Example 420, (S)-6-((benzo[d]thiazol-7-yl(1-(1-(tert-butyl)piperidin-4-yl)-1H-1,2,3-triazol-4-yl)methyl)amino)-4-(neopentyl-amino)quinoline-3,8-dicarbonitrile] | 7.60 | 8.70 |  |
| N#Cc1cnc2c(Cl)cc(N[C@@H](c3cccnc3)c3cn(CCOCCO)nn3)cc2c1Nc1ccc(F)c(Cl)c1 [Example 341, (S)-8-chloro-4-((3-chloro-4-fluorophenyl)amino)-6-(((1-(2-(2-hydroxyethoxy)ethyl)-1H-1,2,3-triazol-4-yl)(pyridin-3-yl)methyl)-amino)quinoline-3-carbonitrile] | 6.07 | 8.22 |  |
| CC(C)(C)ONc1c(C#N)cnc2c(C#N)cc(N[C@H](c3cn(C4CC4)nn3)c3cccc4ncsc34)cc12 [Example 456, (S)-6-((benzo[d]thiazol-7-yl(1-cyclopropyl-1H-1,2,3-triazol-4-yl)methyl)amino)-4-(tert-butoxyamino)quinoline-3,8-dicarbonitrile] | 6.00 | 7.29 |  |
| Cn1ncc2cccc([C@H](Nc3cc(Cl)c4ncc(C#N)c(NCC(C)(C)C)c4c3)c3cn(C4(C(F)F)CC4)nn3)c21 [Example 603, (S)-8-chloro-6-(((1-(1-(difluoromethyl)cyclo-propyl)-1H-1,2,3-triazol-4-yl)(1-methyl-1H-indazol-7-yl)methyl)amino)-4-(neopentyl-amino)quinoline-3-carbonitrile] | 6.97 | 8.15 |  |
| CC(C)(O)[C@@H](Nc1c(C#N)cnc2c(Cl)cc(N[C@@H](c3cccnc3)c3c[nH]nn3)cc12)c1ccccc1 [Example 186, 8-chloro-4-(((S)-2-hydroxy-2-methyl-1-phenylpropyl)amino)-6-(((S)-pyridin-3-yl(1H-1,2,3-triazol-4-yl)methyl)amino)quinoline-3-carbonitrile] | 5.18 | 6.93 |  |
| N#CCC[C@@H](Nc1c(C#N)cnc2c(C#N)cc(N[C@H](c3cn(C4CC4)nn3)c3csc4c3CCN(C3COC3)C4)cc12)c1ccccc1 [Example 414, 4-(((R)-3-cyano-1-phenylpropyl)amino)-6-(((S)-(1-cyclopropyl-1H-1,2,3-triazol-4-yl)(6-(oxetan-3-yl)-4,5,6,7-tetrahydro-thieno[2,3-c]pyridin-3-yl)methyl)amino)-quinoline-3,8-dicarbonitrile] | 7.46 | 9.00 |  |
| Cc1nc(F)ccc1[C@H](Nc1cc(Cl)c2ncc(C#N)c(NCC34CC(C3)C4)c2c1)c1cn(C2(C(F)F)CC2)nn1 [Example 739, (S)-4-((bicyclo[1.1.1]pentan-1-ylmethyl)amino)-8-chloro-6-(((1-(1-(difluoromethyl)cyclopropyl)-1H-1,2,3-triazol-4-yl)(6-fluoro-2-methylpyridin-3-yl)methyl)amino)quinoline-3-carbonitrile] | 6.60 | 7.68 |  |
| N#Cc1cnc2c(Cl)cc(N[C@H](c3c[nH]nn3)c3cccnc3F)cc2c1Nc1cnc(F)c(F)c1 [Example 151, (S)-8-chloro-4-((5,6-difluoropyridin-3-yl)amino)-6-(((2-fluoropyridin-3-yl)(1H-1,2,3-triazol-4-yl)methyl)amino)quinoline-3-carbonitrile] | 5.88 | 8.10 |  |
| COc1nccc2c([C@H](Nc3cc(Cl)c4ncc(C#N)c(NCC(C)(C)C)c4c3)c3cn(C4(C)CC4)nn3)cccc12 [Example 913, (S)-8-chloro-6-(((1-methoxylsoquinolin-5-yl)(1-(1-methylcyclopropyl)-1H-1,2,3-triazol-4-yl)methyl)amino)-4-(neopentylamino)quinoline-3-carbonitrile] |  |  | pEC50 [1, 4]: 7.07; pIC50 [2, 5]: 8.22 |
| CC(C)(C)CNc1c(C#N)cnc2c(Cl)cc(N[C@H](c3cn(C4(C(N)=O)CCC4)nn3)c3cccc4ncsc34)cc12 [Example 463, (S)-1-(4-(benzo[d]thiazol-7-yl((8-chloro-3-cyano-4-(neopentylamino)quinolin-6-yl)amino)methyl)-1H-1,2,3-triazol-1-yl)cyclobutane-1-carboxamide] | 7.20 | 8.70 |  |
| Cn1nnc2cccc([C@H](Nc3cc(C#N)c4ncc(C#N)c(NCC(C)(C)C)c4c3)c3cn(C4(C(F)(F)F)CC4)nn3)c21 [Example 527, (S)-6-(((1-methyl-1H-benzo[d][1,2,3]triazol-7-yl)(1-(1-(trifluoromethyl)cyclopropyl)-1H-1,2,3-triazol-4-yl)methyl)amino)-4-(neopentylamino)quinoline-3,8-dicarbonitrile] | 7.11 | 8.52 |  |
| Cc1nc(F)ccc1[C@H](Nc1cc(Cl)c2ncc(C#N)c(NCC(C)(C)C)c2c1)c1cn(C2(C(F)(F)F)COC2)nn1 [Example 548, (S)-8-chloro-6-(((6-fluoro-2-methylpyridin-3-yl)(1-(3-(trifluoromethyl)oxetan-3-yl)-1H-1,2,3-triazol-4-yl)methyl)amino)-4-(neopentylamino)quinoline-3-carbonitrile] | 6.91 | 8.10 |  |
| Cc1nc(F)ccc1[C@H](Nc1cc(Cl)c2ncc(C#N)c(NCC(C)(C)C)c2c1)c1nnn([C@@H](C)CF)c1F [Example 952, 8-chloro-6-(((S)-(5-fluoro-1-((S)-1-fluoropropan-2-yl)-1H-1,2,3-triazol-4-yl)(6-fluoro-2-methylpyridin-3-yl)methyl)amino)-4-(neopentylamino)quinoline-3-carbonitrile] |  |  | pEC50 [1, 8]: 7.44; pIC50 [2, 9]: 8.40 |
| Cn1cnc([C@H](Nc2cc(Cl)c3ncc(C#N)c(Nc4ccc(F)c(Cl)c4)c3c2)c2cn(C3CCN(C(C)(C)C)CC3)nn2)c1 [Example 267, (S)-6-(((1-(1-(tert-butyl)piperidin-4-yl)-1H-1,2,3-triazol-4-yl)(1-methyl-1H-imidazol-4-yl)methyl)amino)-8-chloro-4-((3-chloro-4-fluorophenyl)-amino)quinoline-3-carbonitrile] | 5.29 | 7.52 |  |
| N#CCC[C@@H](Nc1c(C#N)cnc2c(Cl)cc(N[C@H](c3cn(C4CC4)nn3)c3csc4c3CCN(C3COC3)C4)cc12)c1ccccc1 [Example 84, 8-chloro-4-(((R)-3-cyano-1-phenylpropyl)amino)-6-(((S)-(1-cyclopropyl-1H-1,2,3-triazol-4-yl)(6-(oxetan-3-yl)-4,5,6,7-tetrahydrothieno[2,3-c]pyridin-3-yl)methyl)amino)quinoline-3-carbonitrile] | 8.00 | 9.00 |  |
| CC[C@@H](Nc1c(C#N)cnc2c(Cl)cc(N[C@@H](c3cccnc3)c3cn(CC[N+](C)(CC)CC)nn3)cc12)c1ccccc1 [Example 212, 2-(4-((S)-((8-chloro-3-cyano-4-(((R)-1-phenylpropyl)amino)quinolin-6-yl)amino)(pyridin-3-yl)methyl)-1H-1,2,3-triazol-1-yl)-N,N-diethyl-N-methylethan-1-aminium] | 5.04 | 7.36 |  |
| Cc1nc(F)ccc1[C@H](Nc1cc(C#N)c2ncc(C#N)c(NCC(C)(C)C)c2c1)c1cn(CC2(C(F)(F)F)CC2)nn1 [Example 839, (S)-6-(((6-fluoro-2-methylpyridin-3-yl)(1-((1-(trifluoromethyl)cyclo-propyl)methyl)-1H-1,2,3-triazol-4-yl)methyl)amino)-4-(neopentylamino)quinoline-3,8-dicarbonitrile] |  |  | pEC50 [1, 8]: 7.03; pIC50 [2, 9]: 8.22 |
| CC(C)(C)CNc1c(C#N)cnc2c(Cl)cc(N[C@H](c3cn(C45CC(C4)C5)nn3)c3ccc(F)c4ncccc34)cc12 [Example 920, (S)-6-(((1-(bicyclo[1.1.1]pentan-1-yl)-1H-1,2,3-triazol-4-yl)(8-fluoroquinolin-5-yl)methyl)amino)-8-chloro-4-(neopentylamino)quinoline-3-carbonitrile] |  |  | pEC50 [1, 8]: 7.55; pIC50 [2, 9]: 8.52 |
| Cc1nc(F)ccc1[C@H](Nc1cc(Cl)c2ncc(C#N)c(N[C@H]3CCOCC3(C)C)c2c1)c1cn(C2(C(F)F)CC2)nn1 [Example 540, 8-chloro-6-(((S)-(1-(1-(difluoromethyl)-cyclopropyl)-1H-1,2,3-triazol-4-yl)(6-fluoro-2-methylpyridin-3-yl)methyl)-amino)-4-(((S)-3,3-dimethyltetrahydro-2H-pyran-4-yl)amino)quinoline-3-carbonitrile] | 6.12 | 7.30 |  |
